In the test the test system is Human peripheral blood mononuclear cells. The test is described as follows: Human Concanavalin-A Proliferation Assay (Con HU Assay). The class given is cell-based. The settings on record: concanavalin-A stimulated human PBMC; for inhibition at 100 µM / inhibition at 10 µM / inhibition at 1 µM: 72 h, read-out: % Inhibition of proliferation (at concentrations of 1,10, or 100 μm); for inhibition at 100 µM: concentration 100 μm (in parentheses in the cell); for inhibition at 100 µM / inhibition at 10 µM / % Inhibition of proliferation (at concentrations of 1,10, or 100 μm) / inhibition at 1 µM: 3 days; for IC50: tritiated thymidine. As to the method:
Human peripheral blood mononuclear cells were cultured in RPMI 1640 medium supplemented with 10 μg/ml gentamicin, 50 μM 2-mercaptoethanol, 1X MEM non-essential amino acids (Sigma Chemical Co., St. Louis, Mo.), 100 U/ml sodium penicillin G, 100 μg/ml streptomycin sulfate, 2 mM L-glutamine, 1 mM sodium pyruvate (Life Technologies, Grand Island, N.Y.) and 10% fetal bovine serum (Hyclone, Logan, Utah) at 37° C. with 5% CO2.
The procedure in Current Protocols in Immunology, Volume 1, Published by the Greene Publishing Associates and John Wiley & Sons, Inc, Edited by Richard Coico, 1994, hereby incorporated by reference, was followed. Briefly, 50 ml of blood from human volunteers was collected in heparinized syringes and mixed. Blood was diluted 1:1 in Dulbecco's phosphate buffered saline (D-PBS) (Life Technologies, Grand Island, N.Y.) and mixed. PBS-blood mixture was overlaid into 50 ml centrifuge tubes containing 15 ml Histopaque 1077 (Sigma Chemical Co., St. Louis, Mo.) and centrifuged at 500 X G for 30 minutes at room temperature. Cells at the interface from each Histopaque tube were removed and mixed with 5 ml of D-PBS. Each cell suspension was diluted to 50 ml with D-PBS, mixed and centrifuged at 400 X G for 15 minutes at room temperature. After most of the supernatant was removed, cells were resuspended to 40 ml with D-PBS per tube (2 tubes per donor). Cells were centrifuged at 400 X G for 10 minutes at room temperature. Pellets were resuspended in 10 ml of supplemented RPMI 1640 and cell number determined with a Coulter counter. Cells were diluted to a concentration of 0.5×10^6 cells per mL.
The procedure in Current Protocols in Immunology, Volume 1, Published by the Greene Publishing Associates and John Wiley & Sons, Inc, Edited by Richard Coico, 1994, hereby incorporated by reference, was followed. Briefly, test compounds were added to appropriate wells on 96-well tissue culture plates (Corning Glass Works, Corning, N.Y.) in 20 µl of supplemented RPMI 1640. Human peripheral blood mononuclear cells were added to each well in 100 μl volumes (final cell concentration equal to 50,000 cells per well). After 15 minutes, 100 μl of 5 μg/ml concanavalin-A (Sigma Chemical Co., St. Louis, Mo.) in supplemented RPMI 1640 was added to a final concentration of 2.5 μg/ml. Plates were incubated for 3 days at 37° C. with 5% CO2. On day 3, plates were pulsed with 0.5 μCi/well tritiated thymidine (New England Nuclear, Boston, Mass.). After 6 hours, plates were harvested on a Tomatec 96-well havester (Orange, Conn.). Glass filter mats were counted on a Matrix 9600 direct beta counter (Packard, Meriden, Conn.).

Setting [1] is: Homo sapiens, PBMC, concentration 10 μm (in parentheses in the cell).
[2] abbreviates: concentration 1 μm (in parentheses in the cell).
Setting [3] is: concentration 10 μm (in parentheses in the cell).
[4] abbreviates: Homo sapiens, PBMC, concentration 1 μm (in parentheses in the cell).

Molecules are shown by their SMILES. Read-outs that look alike come from different tables or passages of the source.

`O=C(Nc1ccc(-n2nc(C(F)(F)F)cc2C(F)(F)F)cc1)c1cc([N+](=O)[O-])cc([N+](=O)[O-])c1` [Example 134, N-[4-[3,5-bis(trifluoromethyl)-1H-pyrazol-1-yl]phenyl]-3,5-dinitrobenzamide]: the inhibition at 100 µM amounted to 100% and half-maximal inhibition (IC50) required 2770 nM.

With `N#Cc1cccc(/C=C\c2ccc(-n3nc(C(F)(F)F)cc3C(F)(F)F)cc2)c1` [Example 139, (Z)-3-[2-[4-[3,5-bis(trifluoromethyl)-1H-pyrazol-1-yl]phenyl]ethenyl]benzonitrile], the inhibition at 10 µM under setting [1] turned out to be 5%.

As for `O=C(Nc1ccc(-n2nc(C(F)(F)F)cc2C(F)(F)F)cc1)c1cccc(Br)c1` [Example 144, N-[4-[3,5-bis(trifluoromethyl)-1H-pyrazol-1-yl]phenyl]-3-bromobenzamide], where the note is “Homo sapiens, PBMC”, the inhibition at 100 µM was determined as 100% and the IC50 was 240 nM.

For `CC(=O)Nc1ccc(-n2nc(C(F)(F)F)cc2C(F)(F)F)cc1` [Example 156], the “% Inhibition of proliferation (at concentrations of 1,10, or 100 μm)” value (“% Inhibition of proliferation” below) under setting [2] is 16(1) %.

As to `O=C(CCCNC(=O)OCc1ccccc1)Nc1ccc(-n2nc(C(F)(F)F)cc2C(F)(F)F)cc1` [Example 158], under setting [2], the “% Inhibition of proliferation” value is 30(1) %.

Regarding `O=C(Nc1ccc(-n2nc(C(F)(F)F)cc2C(F)(F)F)cc1)c1sccc1Br` [Example 161, N-[4-[3,5-bis(trifluoromethyl)-1H-pyrazol-1-yl]phenyl]-3-bromo-2-thiophenecarboxamide], where the note is “Homo sapiens, PBMC”, the inhibition at 100 µM came out at 99% and the IC50 is 231 nM.

`O=C(Nc1ccc(-n2nc(C(F)(F)F)cc2C(F)(F)F)cc1)c1cnccn1` [Example 172, N-[4-[3,5-Bis(trifluoromethyl)-1H-pyrazol-1-yl]phenyl]pyazinecarboxamide]: under setting [2], the “% Inhibition of proliferation” value is on record as 48(1) %.

Consider `CC(C)(C)OC(=O)NCCCC(=O)Nc1ccc(-n2nc(C(F)(F)F)cc2C(F)(F)F)cc1` [Example 173, 1,1-Dimethylethyl [[4-[4-[3,5-bis(trifluoromethyl)-1H-pyrazol-1-yl]phenyl]amino]-4-oxobutyl]carbamate], for which the “% Inhibition of proliferation” value under setting [2] is 28(1) %.

With `CCCC(=O)Nc1ccc(-n2nc(C(F)(F)F)cc2C(F)(F)F)cc1` [Example 175, N-[4-[3,5-Bis(trifluoromethyl)-1H-pyrazol-1-yl]phenyl]butanamide], under “Homo sapiens, PBMC”, the inhibition at 100 µM is 100% and inhibition was half-maximal at 562 nM (IC50).

In turn, `COc1cc(SC)ccc1C(=O)Nc1ccc(-n2nc(C(F)(F)F)cc2C(F)(F)F)cc1` [Example 179, N-[4-[3,5-bis(trifluoromethyl)-1H-pyrazol-1-yl]phenyl]-2-methoxy-4-(methythio)benzamide] yielded an IC50 of 8870 nM. Moreover, the “% Inhibition of proliferation” value under setting [3] is 47(10) %.

In the case of `O=C(Nc1ccccc1Br)c1ccc(-n2nc(C(F)(F)F)cc2C(F)(F)F)cc1` [Example 192, 4-[3,5-Bis(trifluoromethyl)-1H-pyrazol-1-yl]-N-(2-bromophenyl)benzamide], the inhibition at 1 µM under setting [4] turned out to be 10%.

For `O=C(Nc1ccc(-n2nc(C(F)(F)F)cc2C(F)(F)F)cc1)c1cccc([N+](=O)[O-])c1Br` [Example 205, N-[4-[3,5-bis(trifluoromethyl)-1H-pyrazol-1-yl]phenyl]-2-bromo-3-nitrobenzamide], the inhibition at 10 µM under setting [1] amounted to 100%. The molecule also registered an IC50 (Homo sapiens, PBMC) of 196 nM.

On to `O=C(Nc1ccc(-n2nc(C(F)(F)F)cc2C(F)(F)F)cc1)c1ccc(Br)cc1Cl` [Example 217, N-[4-[3,5-bis(trifluoromethyl)-1H-pyrazol-1-yl]phenyl]-4-bromo-2-chlorobenzamide], for which the inhibition at 10 µM under setting [1] amounted to 100%. The molecule further gave an IC50 (Homo sapiens, PBMC) of 218 nM.

The molecule `O=C(Nc1ccc(-n2nc(C(F)(F)F)cc2C(F)(F)F)cc1)c1ccc(O)c(Br)c1` [Example 222] returned an IC50 of 760 nM. For the same molecule, the “% Inhibition of proliferation” value under setting [3] was 100(10) %.

The molecule `O=C(Nc1ccc(-n2nc(C(F)(F)F)cc2C(F)(F)F)cc1)c1cc([N+](=O)[O-])c(Cl)c([N+](=O)[O-])c1Cl` [Example 233, N-4-[3,5-bis(trifluoromethyl)-1H-pyrazol-1-yl]phenyl-2,4-dichloro-3,5-dinitrobenzamide] came in with an IC50 of 340 nM. For the same molecule, the “% Inhibition of proliferation” value under setting [3] is 100(10) %.

Take `O=C(Nc1ccc(-n2nc(C(F)(F)F)cc2C(F)(F)F)cc1)c1c(F)c(F)c(Br)c(F)c1F` [Example 236, N-[4-[3,5-bis(trifluoromethyl)-1H-pyrazol-1-yl]phenyl]-4-bromo-2,3,5,6-tetrafluorobenzamide]: the inhibition at 10 µM under setting [1] turned out to be 100%. Where the note is “Homo sapiens, PBMC”, half-maximal inhibition (IC50) was put at 180 nM.

Consider `O=C(Nc1ccc(-n2nc(C(F)(F)F)cc2C(F)(F)F)cc1)c1ccc(Br)o1` [Example 251, N-[4-[3,5-bis(trifluoromethyl)-1H-pyrazol-1-yl]phenyl]-5-bromo-2-furancarboxamide], for which the inhibition at 1 µM under setting [4] is 50%.

Take `O=C1CCC(C(=O)Nc2ccc(-n3nc(C(F)(F)F)cc3C(F)(F)F)cc2)N1` (centres unmarked) [Example 255, N-[4-[3,5-bis(trifluoromethyl)-1H-pyrazol-1-yl]phenyl]-5-oxo-2-pyrrolidinecarboxamide]: the inhibition at 1 µM under setting [4] was 12%.

Regarding `O=C(Nc1ccc(-n2nc(C(F)(F)F)cc2C(F)(F)F)cc1)c1cncc(Br)c1` [Example 256, N-[4-[3,5-bis(trifluoromethyl)-1H-pyrazol-1-yl]phenyl]-5-bromo-3-pyridinecarboxamide], the inhibition at 10 µM under setting [1] was found to be 100%. This molecule also displayed an IC50 (Homo sapiens, PBMC) of 250 nM.

For the molecule `O=C(Nc1ccc(-n2nc(C(F)(F)F)cc2C(F)(F)F)cc1)c1cc(Br)c(Br)s1` [Example 263, N-[4-[3,5-bis(trifluoromethyl)-1H-pyrazol-1-yl]phenyl]-2,3-dibromo-5-thiophenecarboxamide], under setting [1], the inhibition at 10 µM is 100%. For the setting “Homo sapiens, PBMC”, this molecule came in with an IC50 of 2930 nM.

Regarding `O=C(Nc1ccc(-n2nc(C(F)(F)F)cc2C(F)(F)F)cc1)c1cc(Cl)cnc1Cl` [Example 270, N-[4-[3,5-bis(trifluoromethyl)-1H-pyrazol-1-yl]phenyl]-2,5-dichloro-3-pyridinecarboxamide], the inhibition at 10 µM under setting [1] was determined as 100%. Also, the IC50 (Homo sapiens, PBMC) was 228 nM.

As for `COC(=O)c1cc(NC(=O)c2cc(Br)ccc2Cl)ccc1-n1nc(C(F)(F)F)cc1C(F)(F)F` [Example 274, methyl 2-[3,5-bis(trifluoromethyl)-1H-pyrazol-1-yl]-5-[(5-bromo-2-chlorobenzoyl)amino]benzoate], the inhibition at 10 µM under setting [1] was 100%. Besides, the IC50 (Homo sapiens, PBMC) turned out to be 2180 nM.

Regarding `Cc1cc(C(F)(F)F)nn1-c1ccc(NC(=O)c2ccc(Cl)cc2)cc1` [Example 281, 4-chloro-N-[4-[5-methyl-3-(trifluoromethyl)-1H-pyrazol-1-yl]phenyl]benzamide], under “Homo sapiens, PBMC”, the inhibition at 100 µM came out at 94% and half-maximal inhibition (IC50) required 1060 nM.

Take `Nc1cnccc1C(=O)Nc1ccc(-n2nc(C(F)(F)F)cc2C(F)(F)F)cc1` [Example 290, 3-amino-N-(4-(3,5-bis(trifluoromethyl)-1H-pyrazol-1-yl)phenyl)isonicotinamide]: for the setting “Homo sapiens, PBMC”, 373 nM corresponded to half-maximal inhibition (IC50).

Take `O=C(Nc1ccc(-n2nc(C(F)(F)F)cc2C(F)(F)F)nc1)c1ccccc1F` [Example 292, N-(6-(3,5-bis(trifluoromethyl)-1H-pyrazol-1-yl)-3-pyridinyl)-2-fluorobenzamide]: the IC50 (Homo sapiens, PBMC) worked out at 258 nM.

Take `COC(=O)c1cc(NC(=O)c2ccccc2F)ccc1-n1nc(C(F)(F)F)cc1C(F)(F)F` [Example 293, methyl 2-(3,5-bis(trifluoromethyl)-1H-pyrazol-1-yl)-5-((2-fluorobenzoyl)amino)benzoate]: half-maximal inhibition (Homo sapiens, PBMC) (IC50) was put at 409 nM.

As a reminder, the IC50 is the concentration at which inhibition is half-maximal. Low values mean greater potency, high ones weaker potency.

For the origin of these results see patent US20010044445A1, “AZOLE INHIBITORS OF CYTOKINE PRODUCTION” (priority 1999, published 2001).
